The structures appear in SMILES notation.

This note sets out measurements from US20070225318A1, “Pyrazole Compounds Useful In The Treatment Of Inflammation” (BIOLIPOX AB, priority 2004, published 2007).

For one experiment, the target named is T1, purified human 15-lipoxygenase (Homo sapiens, UniProt P16050).
T1 sequence (P16050 1-662): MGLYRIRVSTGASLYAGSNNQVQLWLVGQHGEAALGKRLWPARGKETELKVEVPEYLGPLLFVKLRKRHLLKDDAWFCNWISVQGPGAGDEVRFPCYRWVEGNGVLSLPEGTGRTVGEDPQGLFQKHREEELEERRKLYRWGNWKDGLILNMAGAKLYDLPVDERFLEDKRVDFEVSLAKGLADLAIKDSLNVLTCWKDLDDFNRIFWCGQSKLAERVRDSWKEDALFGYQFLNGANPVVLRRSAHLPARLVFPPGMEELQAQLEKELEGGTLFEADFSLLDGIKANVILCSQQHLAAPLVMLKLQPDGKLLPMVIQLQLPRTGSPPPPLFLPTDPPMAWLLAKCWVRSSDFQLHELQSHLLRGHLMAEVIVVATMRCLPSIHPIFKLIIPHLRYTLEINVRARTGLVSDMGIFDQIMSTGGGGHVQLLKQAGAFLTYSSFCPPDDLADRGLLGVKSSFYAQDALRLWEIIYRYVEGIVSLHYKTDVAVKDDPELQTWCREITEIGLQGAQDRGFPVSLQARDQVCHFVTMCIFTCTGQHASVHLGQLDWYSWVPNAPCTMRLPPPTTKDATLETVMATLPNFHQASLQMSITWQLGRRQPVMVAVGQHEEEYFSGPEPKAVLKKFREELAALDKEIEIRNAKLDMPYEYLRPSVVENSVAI
Briefly: 15-lipoxygenase inhibition assay (arachidonic acid oxidation, HPLC readout). Type of experiment: biochemical.
Settings: not given
As for the experimental part:
The assay employed takes advantage of the ability of lipoxygenases to oxidize polyunsaturated fatty acids, containing a 1,4-cis-pentadiene configuration, to their corresponding hydroperoxy or hydroxyl derivatives. In this particular assay, the lipoxygenase was a purified human 15-lipoxygenase and the fatty acid was arachidonic acid. The assay is performed at room temperature (20-22° C.) and the following are added to each well in a 96-well microtiter plate:
a) 35 μL phosphate buffered saline (PBS) (pH 7.4);
b) inhibitor (i.e. compound) or vehicle (0.5 μl DMSO);
c) 10 μL of a 10× concentrated solution of 15-lipoxygenase in PBS. The plates are incubated for 5 minutes at room temperature;
The plate is then incubated for 10 minutes at room temperature;
e) the enzymatic reaction is terminated by the addition of 100 μl methanol; and
f) the amount of 15-hydroperoxy-eicosatetraenoic acid or 15-hydroxy-eicosatetraenoic acid is measured by reverse phase HPLC.
In general, IC50 refers to the concentration at which inhibition is half-maximal. In turn, `O=C(Nc1ccc2ccccc2n1)c1cc[nH]n1` [Example 2, Pyrazole-3-carboxylic acid quinolin-2-ylamide] yielded an IC50 of 0.33 µM.

The experiment is the same for the next values; noted with them: arachidonic acid substrate, room temperature, PBS pH 7.4; read-out: IC50.
Turning to `O=C(Nc1cccc2cccnc12)c1cc[nH]n1` [Example 59, Pyrazole-3-carboxylic acid quinolin-8-ylamide], the IC50 worked out at 0.465 µM.
Same read-out and setting: for `O=C(Nc1cccc2c1OC(F)(F)O2)c1cc[nH]n1` [Example 60, Pyrazole-3-carboxylic acid (2,3-(difluoromethylenedioxy)phenyl)amide] the value was 0.39 µM; for `O=C(Nc1cccc2[nH]ccc12)c1cc(Cl)[nH]n1` [Example 48, 5-Chloropyrazole-3-carboxylic acid indol-4-ylamide], 0.211 µM; for `Cc1cc(C(=O)Nc2cccc3ncccc23)n[nH]1` [Example 7, 5-Methylpyrazole-3-carboxylic acid quinolin-5-ylamide], 0.42 µM.
Same read-out and setting: for `O=C(Nc1ccnc2ccc(Br)cc12)c1cc[nH]n1` [Example 63, Pyrazole-3-carboxylic acid (6-bromoquinolin-4-yl)amide] the value was 0.682 µM.
`CCOC(=O)c1c(NC(=O)c2cc[nH]n2)sc2c1CCCC2` [Example 56, 2-[(Pyrazole-3-carbonyl)amino]-4,5,6,7-tetrahydrobenzo[b]thiophene-3-carboxylic acid ethyl ester]: the IC50 was 0.076 µM.
